Measured values: US5134140A, “Psychotropic benzofuran derivatives” (American Home Products Corporation, priority 1991, dated 1992)
Entries after “also recorded” stand apart in the source; their conditions may differ. Where two headings read alike, the source gives them in different places.

Assays:
[1] = molecular target: T1, serotonin 5-HT1A receptor (Rattus norvegicus, UniProt P19327); experiment: 5-HT1A binding, displacement of [3H] 8-OHDPAT
T1 construct: following the procedure of Hall et al., J. Neurochem; 44, 1685 (1985); from tissue
T1 sequence (P19327 1-422): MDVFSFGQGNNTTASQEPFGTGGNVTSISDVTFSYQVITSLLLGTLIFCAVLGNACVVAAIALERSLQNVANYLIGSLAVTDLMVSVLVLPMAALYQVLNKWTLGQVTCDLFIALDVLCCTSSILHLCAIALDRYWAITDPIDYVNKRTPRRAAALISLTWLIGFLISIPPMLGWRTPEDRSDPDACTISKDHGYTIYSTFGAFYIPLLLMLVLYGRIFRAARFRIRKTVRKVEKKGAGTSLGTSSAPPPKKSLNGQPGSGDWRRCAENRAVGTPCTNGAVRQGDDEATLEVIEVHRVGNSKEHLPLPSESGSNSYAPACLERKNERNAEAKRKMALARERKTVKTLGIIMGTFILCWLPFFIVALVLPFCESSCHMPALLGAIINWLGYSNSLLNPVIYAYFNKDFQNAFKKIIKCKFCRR
Text: High affinity for the serotonin 5-HT1A receptor was established by testing the claimed compound's ability to displace [^3 H] 8-OHDPAT (dipropylaminotetralin) from the 5-HT1A serotonin receptor following the procedure of Hall et al., J. Neurochem. 44, 1685 (1985). […] The anxiolytic activity of buspirone is believed to be, at least partially, due to its 5-HT1A receptor affinity (Vander Maclen et al., Eur. J. Pharmacol. 1986, 129 (1-2) 133-130).

dopamine D2 receptor = molecular target: T2, dopamine D2 receptor (Rattus norvegicus, UniProt P61169); experiment: D-2 binding, 3H-spiroperidol, homogenized limbic brain tissue
T2 construct: from tissue; host or cells: homogenized limbic brain tissue
Method: Modest affinity for the dopamine D2 receptor was established by the standard experimental test procedure of Fields, et al., Brain Res., 136, 578 (1977) and Yamamura et al., eds., Neurotransmitter Receptor Binding, Raven Press, N.Y. (1978) wherein homogenized limbic brain tissue is incubated with ^3 H-spiroperidol and various concentrations of test compound, filtered and washed and shaken with Hydrofluor scintillation cocktail (National Diagnostics) and counted in a Packard 460 CD scintillation counter.

serotonin syndrome = experiment: ability to produce or antagonize the serotonin syndrome in rats; assay type: in vivo, male Sprague-Dawley CD rats; conditions: for ED50: Rattus norvegicus
Method: Certain of the compounds of this invention were also compared to buspirone in their ability to either produce or antagonize the serotonin syndrome according to the procedure of Smith and Peroutka, Pharmacol. Biochem. Behav. 24:1513-1519, 1986, in which 250-350 g male Sprague-Dawley CD rats (Charles River) are given either test compound or vehicle and placed individually into plexiglass observation cages. Agonist activity of the compound is determined by scoring for the presence of the serotonin syndrome (forepaw treading, head weaving, tremor, hindlimb abduction, flattened body posture, and Straub tail) during the first 15 minutes after compound administration. Antagonist activity is then determined by a challenge with either of the 5-HT1A agonists 5-methoxy-N,N-dimethyltryptamine (5-MeODMT) or 8-hydroxydipropylaminotetralin.

5-HT1A receptor = conditions: cited from earlier work
[2] = molecular target: T1, serotonin 5-HT1A receptor; conditions: buspirone standard; cited from earlier work
[3] = antagonist activity, challenge with 5-MeODMT or 8-hydroxydipropylaminotetralin, agonist not specified for these values, read-out: ED50, antagonize the serotonin syndrome

T2 sequence (P61169 whole entry): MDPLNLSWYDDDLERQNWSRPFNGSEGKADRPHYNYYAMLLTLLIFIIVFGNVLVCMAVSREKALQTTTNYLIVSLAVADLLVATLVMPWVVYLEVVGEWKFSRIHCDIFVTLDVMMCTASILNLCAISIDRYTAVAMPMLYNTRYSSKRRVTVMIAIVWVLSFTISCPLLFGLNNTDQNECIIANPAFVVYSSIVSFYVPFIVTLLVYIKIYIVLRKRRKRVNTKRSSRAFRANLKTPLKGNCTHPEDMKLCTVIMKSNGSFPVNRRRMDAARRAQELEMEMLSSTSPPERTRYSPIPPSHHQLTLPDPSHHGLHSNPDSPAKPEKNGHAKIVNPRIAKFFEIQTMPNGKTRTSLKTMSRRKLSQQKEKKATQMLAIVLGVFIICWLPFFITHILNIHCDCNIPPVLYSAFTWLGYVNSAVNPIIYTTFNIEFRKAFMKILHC

Row | inhibition at 0.1 µM [1] | SMILES | other results
1 | 31% | COc1cccc2cc(CNCCN3C(=O)C4C5C=CC(C6C=CC65)C4C3=O)oc12 (stereo not shown) [Example 1, 3a, 4,4a, 6a, 7,7a-Hexahydro-2-[2-[[(7-methoxy-2-benzofuranyl)methyl]amino]ethyl]-4,7-etheno-1H-cyclobut[f]isoindole-1,3(2H)-dione] | 
2 | 87% | COc1cccc2cc(CNCCNC(=O)c3ccc(F)cc3)oc12 [Example 6] | inhibition at 1 µM (dopamine D2 receptor): 70%
3 | 88% | O=C(NCCNCc1cc2ccc(O)cc2o1)C12CC3CC(CC(C3)C1)C2 [Example 17, N-[2-[[(6-Hydroxy-2-benzofuranyl)methyl]amino]ethyl]tricyclo[3.3.1.1^3,7]decane-1-carboxamide] | 
4 | 63% | COc1ccc2cc(CNCCNC(=O)C34CC5CC(CC(C5)C3)C4)oc2c1OC [Example 9, N-[2-[[(6,7-Dimethoxy-2-benzofuranyl)methyl]amino]ethyl]tricyclo[3.3.1.1^3,7]decane-1-carboxamide] | 
5 | 100% | COc1cccc2cc(CNCCNC(=O)C34CC5CC(CC(C5)C3)C4)oc12 [Example 2, N-[2-[[(7-Methoxy-2-benzofuranyl)methyl]amino]ethyl]tricyclo[3.3.1.1^3,7]decane-1-carboxamide] | inhibition at 1 µM (dopamine D2 receptor): 29%; IC50 [1]: 0.5 nM; ED50 (serotonin syndrome; [3]): 11.7 mg/kg
6 |  | O=C1CC2(CCCC2)CC(=O)N1CCCCNCC1COc2ccccc2O1 (single isomer, unassigned; (-)) [(-)-MDL 72832] | binding at the 5-HT1A receptor site relative to the dextrorotary isomer (5-HT1A receptor; (-)-isomer vs dextrorotary isomer): 32 times
7 | 64% | O=C(NCCNCc1cc2cc(O)ccc2o1)C12CC3CC(CC(C3)C1)C2 [Example 15, N-[2-[[(5-Hydroxy-2-benzofuranyl)methyl]amino]ethyl]tricyclo[3.3.1.1^3,7]decane-1-carboxamide] | 
8 | 20% | O=C(NCCNCc1cc2ccc(OCc3ccccc3)cc2o1)C12CC3CC(CC(C3)C1)C2 [Example 12, N-[2-[[(6-Phenylmethoxy-2-benzofuranyl)methyl]amino]ethyl]tricyclo[3.3.1.1^3,7]decane-1-carboxamide] | 
9 |  | O=C1CC2(CCCC2)CC(=O)N1CCCCN1CCN(c2ncccn2)CC1 [buspirone] | affinity for the serotonin 5-HT1A receptor (in words) [2]: high affinity; also recorded: potent affinity; ED50 (serotonin syndrome; 0.25 h, agonist activity, first 15 minutes after administration, read-out: ED50, produced the serotonin syndrome): 7.3 mg/kg; ED50 (serotonin syndrome; antagonist activity, challenge with 5-MeODMT, read-out: ED50, antagonized 5-MeODMT-induced syndrome): 4.6 mg/kg; characterization in the serotonin syndrome test (serotonin syndrome; in words): partial agonist
10 | 90% | COc1cccc2cc(CN(C)CCNC(=O)C34CC5CC(CC(C5)C3)C4)oc12 [Example 10, N-[2-[[(7-Methoxy-2-benzofuranyl)methyl]methylamino]ethyl]tricyclo[3.3.1.1^3,7]decane-1-carboxamide] | IC50 [1]: 9 nM
11 | 87% | COc1cccc2cc(CNCCNC(=O)C34CCC(CC3=O)C4(C)C)oc12 (single isomer, unassigned) [Example 5, N-[2-[[(7-Methoxy-2-benzofuranyl)methyl]amino]ethyl]-7,7-dimethyl-2-oxobicyclo[2.2.1]heptane-1-carboxamide] | inhibition at 1 µM (dopamine D2 receptor): 4%
12 | 59% | COc1cccc2cc(CNCCN3C(=O)C4CC(C3=O)C3C4C4C5CC6C4C6C53)oc12 (stereo not shown) [Example 4, Decahydro-3-[2-[[(7-methoxy-2-benzofuranyl)methyl]amino]ethyl]-1,5-methano-6,7,9-metheno-2H-pentaleno[1,2-d]azepine-2,4(3H)-dione] | inhibition at 1 µM (dopamine D2 receptor): 49%
13 | 38% | COc1cccc2cc(CNCCNC(=O)C(C)(C)C)oc12 [Example 11, N-[2-[[(7-Methoxy-2-benzofuranyl)methyl]amino]ethyl]-2,2-dimethylpropanamid] | 
14 | 95% | O=C(NCCNCc1cc2cccc(F)c2o1)C12CC3CC(CC(C3)C1)C2 [Example 13, N-[2-[[(7-Fluoro-2-benzofuranyl)methyl]amino]ethyl]tricyclo[3.3.1.1^3,7]decane-1-carboxamide] | 
15 | 61% | COc1cccc2cc(CNCCN3C(=O)CC4(CCCC4)CC3=O)oc12 [Example 3, 8-[2-[[(7-Methoxy-2-benzofuranyl)methyl]amino]ethyl]-8-azaspiro[4.5]decane-7,9-dione] | inhibition at 1 µM (dopamine D2 receptor): 72%
16 |  | O=C1CC2(CCCC2)CC(=O)N1CCCCNCC1COc2ccccc2O1 (stereo not shown) [MDL 72832, 8-[4-(1,4-benzodioxan-2-ylmethylamino)butyl]-8-azaspiro[4.5]decane-7,9-dione] | 5-HT1A receptor ligand character (in words) (5-HT1A receptor): selective and stereospecific
17 | 99% | COc1cccc2cc(CNCCNC(=O)C34CC5CC(CC3C5)C4)oc12 [Example 7, N-[2-[[(7-Methoxy-2-benzofuranyl)methyl]amino]ethyl]hexahydro-2,5-methanopentalene-3a(1H)-carboxamide] | ED50 (serotonin syndrome; [3]): 15.4 mg/kg
18 | 92% | COc1cccc2cc(CNCCNC(=O)C3(C)CCCCC3)oc12 [Example 8, N-[2-[[(7-Methoxy-2-benzofuranyl)methyl]amino]ethyl]-1-methyl-1-cyclohexanecarboxamide] | 
19 | 97% | O=C(NCCNCc1cc2cccc(Cl)c2o1)C12CC3CC(CC(C3)C1)C2 [Example 16, N-[2-[[(7-Chloro-2-benzofuranyl)methyl]amino]ethyl]tricyclo[3.3.1.1^3,7]decane-1-carboxamide] | 
